Assays:
[1] = test system: 22RV1 cells; assay: Cell proliferation assay, CellTiter Glo; type: cell-based; details: Homo sapiens, 22Rv1, 72 h; cell growth inhibition, three days of treatment
Procedure: (§1) a. […] IC50s were determined using 8 concentrations/compound. […] Ki=IC50/(1+[L]/Kd) c.
(§2) Cells were plated at varying density in the respective growth medium in 96 well plates. 24 hr later, cells were treated, in triplicate or quadruplicate, with test articles prepared in a range of concentrations by series dilution of DMSO stock solutions in growth medium and incubated for three to seven days. The number of viable 22RV1 and HT-29 cells was measured using CellTiter Glo assay (CTG, Promega, Madison, WI) after three days of treatment. Cell viability data were plotted using GraphPad Prism (GraphPad Software, Inc., San Diego, CA). In addition, a nonlinear regression model with a sigmoidal dose response and variable slope within GraphPad Prism was used to calculate the IC50 value of individual test articles.

[2] = test system: HT-29 cells; assay: Cell proliferation assay, CellTiter Glo; type: cell-based; details: Homo sapiens, HT-29, 72 h; cell growth inhibition, three days of treatment
Procedure: as §1, §2

[3] = target: AR in LNCaP cytosol (Homo sapiens (Human), UniProt P10275, T878A); assay: AR binding assay (3H-methyltrienolone displacement); details: read-out: AR IC50, 4° C. for 24 hours
Chain of AR in LNCaP cytosol (P10275 whole entry T878A): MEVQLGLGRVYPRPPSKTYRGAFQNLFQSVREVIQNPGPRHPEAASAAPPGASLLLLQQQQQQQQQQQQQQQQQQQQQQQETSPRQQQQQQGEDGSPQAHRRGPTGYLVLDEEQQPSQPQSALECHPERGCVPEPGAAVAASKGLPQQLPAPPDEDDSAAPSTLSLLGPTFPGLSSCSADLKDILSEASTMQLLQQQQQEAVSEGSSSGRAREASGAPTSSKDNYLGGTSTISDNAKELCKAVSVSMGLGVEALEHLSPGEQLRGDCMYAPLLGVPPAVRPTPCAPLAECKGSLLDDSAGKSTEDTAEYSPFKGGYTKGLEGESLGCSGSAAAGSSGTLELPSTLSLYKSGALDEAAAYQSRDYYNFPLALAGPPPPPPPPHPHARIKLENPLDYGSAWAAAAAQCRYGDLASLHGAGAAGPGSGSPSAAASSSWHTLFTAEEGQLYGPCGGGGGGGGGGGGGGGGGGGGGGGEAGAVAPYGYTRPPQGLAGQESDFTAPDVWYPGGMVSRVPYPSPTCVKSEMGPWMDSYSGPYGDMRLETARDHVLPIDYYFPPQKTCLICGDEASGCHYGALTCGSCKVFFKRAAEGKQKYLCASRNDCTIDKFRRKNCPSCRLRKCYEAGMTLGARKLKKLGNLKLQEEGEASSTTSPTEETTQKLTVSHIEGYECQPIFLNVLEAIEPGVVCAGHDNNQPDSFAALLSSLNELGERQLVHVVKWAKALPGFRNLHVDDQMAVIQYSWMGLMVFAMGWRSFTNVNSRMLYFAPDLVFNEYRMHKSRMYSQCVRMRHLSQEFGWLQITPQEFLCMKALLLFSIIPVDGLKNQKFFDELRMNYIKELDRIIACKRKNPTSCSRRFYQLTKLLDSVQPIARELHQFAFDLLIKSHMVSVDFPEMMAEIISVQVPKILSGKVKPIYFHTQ
Procedure: (§3) RBC HotSpot Poly(ADP-ribose) Polymerases 1 (PARP1) and Poly(ADP-ribose) Polymerases 2 (PARP2) Assays: The assay was conducted at Reaction Biology Corporation (RBC; Malvern, PA). The assay principle is radioisotope-based filter binding assay where incorporation of radioisotope-labeled NAD^+ into the substrate captured on filter is detected after washout free NAD^+. Data were analyzed using Excel and GraphPad Prism software for IC50 curve fits. Each assay was conducted with PJ34 as a positive control. PARP1 assay: Human recombinant PARP1 at a final concentration of 2.5 nM was combined with histone H4 (20 μM) and test articles at various concentrations in reaction buffer (50 mM Tris-HCL, pH 8.0, 50 mM NaCl, 10 mM MgCl2, 1 mM DTT, 1% DMSO, and 20 μg/mL activated DNA). The solution was inoculated for 20 min at room temperature and the reaction initiated by adding [adenylate-^32P]-Nicotinamide Adenine Dinucleotide, ^32P-NAD^+ at a final concentration of 10 μM. After incubation for 2 hrs at room temperature, the reaction mixture was filtered and washed with 0.75% phosphoric acid for radioactivity detection. • ii. PARP2 assay: Human recombinant PARP2 at a final concentration of 2.5 nM was combined with histone H3 (20 μM) and test articles at various concentrations in reaction buffer (50 mM Tris-HCL, pH 8.0, 50 mM NaCl, 10 mM MgCl2, 1 mM DTT, 1% DMSO, and 20 μg/mL activated DNA). The solution was inoculated for 20 min at room temperature and the reaction was initiated by adding [adenylate-^32P]-Nicotinamide Adenine Dinucleotide, ^32P-NAD^+ at a final concentration of 10 μM. After incubation for 2 hrs at room temperature, the reaction mixture was filtered and washed with 0.75% phosphoric acid for radioactivity detection. b. AR binding assay: AR in LNCaP cytosol was used for determining the binding affinity of test articles and the reference compound—progesterone (Sigma, Cat: E2785, St. Louis, MO). IC50s were determined using 8 concentrations/compound. Cytosol was plated at 200 μg/well (100 μL) into a 96-well conical polypropylene plate (Agilent, Cat: 5042-1385, Santa Clara, CA) and mixed with 3 μL of test compound. After adding 100 μL of ^3H-methyltrienolone (PerkinElmer, Cat: NET590250UC, San Jose, CA), the plate was sealed and shaken at 300 rpm at 4° C. for 24 hours. Post incubation, 100 μL of radioligand adsorption buffer containing 10 mM Tris-HCl, pH 7.4; 1.5 mM EDTA; 1 mM DTT; 0.25% charcoal; 0.0025% dextran was added to individual well. Plate was shaken for 15 min at 4° C. followed by centrifugation at 3000 rpm for 30 min at 4° C. 150 μL of supernatant was transferred into scint-tube (PerkinElmer, Cat: 6000192) and mixed with 2 mL of Ultima Gold Cocktail (PerkinElmer, Cat: 6013329). Radioactivity was counted using a TriCarb 2910 TR scintillation counter (PerkinElmer). Inhibition of the radioactivity by test articles were calculated using the equation below: % Inhibition=(1−(Assay well-Average_LC)/(Average_HC-Average_LC))×100%. IC50 values were calculated and graphed using the model “log(inhibitor) vs. response—Variable slope” included in GraphPad Prism 5 (San Diego, CA). […] Ki=IC50/(1+[L]/Kd) c.

[4] = target: Human recombinant PARP1 (Homo sapiens (Human), UniProt P09874); assay: RBC HotSpot PARP1 radioisotope-based filter binding assay; details: read-out: PARP1 IC50; 2.5 nM PARP1, histone H4, 10 μM 32P-NAD+
Chain of Human recombinant PARP1 (P09874 whole entry): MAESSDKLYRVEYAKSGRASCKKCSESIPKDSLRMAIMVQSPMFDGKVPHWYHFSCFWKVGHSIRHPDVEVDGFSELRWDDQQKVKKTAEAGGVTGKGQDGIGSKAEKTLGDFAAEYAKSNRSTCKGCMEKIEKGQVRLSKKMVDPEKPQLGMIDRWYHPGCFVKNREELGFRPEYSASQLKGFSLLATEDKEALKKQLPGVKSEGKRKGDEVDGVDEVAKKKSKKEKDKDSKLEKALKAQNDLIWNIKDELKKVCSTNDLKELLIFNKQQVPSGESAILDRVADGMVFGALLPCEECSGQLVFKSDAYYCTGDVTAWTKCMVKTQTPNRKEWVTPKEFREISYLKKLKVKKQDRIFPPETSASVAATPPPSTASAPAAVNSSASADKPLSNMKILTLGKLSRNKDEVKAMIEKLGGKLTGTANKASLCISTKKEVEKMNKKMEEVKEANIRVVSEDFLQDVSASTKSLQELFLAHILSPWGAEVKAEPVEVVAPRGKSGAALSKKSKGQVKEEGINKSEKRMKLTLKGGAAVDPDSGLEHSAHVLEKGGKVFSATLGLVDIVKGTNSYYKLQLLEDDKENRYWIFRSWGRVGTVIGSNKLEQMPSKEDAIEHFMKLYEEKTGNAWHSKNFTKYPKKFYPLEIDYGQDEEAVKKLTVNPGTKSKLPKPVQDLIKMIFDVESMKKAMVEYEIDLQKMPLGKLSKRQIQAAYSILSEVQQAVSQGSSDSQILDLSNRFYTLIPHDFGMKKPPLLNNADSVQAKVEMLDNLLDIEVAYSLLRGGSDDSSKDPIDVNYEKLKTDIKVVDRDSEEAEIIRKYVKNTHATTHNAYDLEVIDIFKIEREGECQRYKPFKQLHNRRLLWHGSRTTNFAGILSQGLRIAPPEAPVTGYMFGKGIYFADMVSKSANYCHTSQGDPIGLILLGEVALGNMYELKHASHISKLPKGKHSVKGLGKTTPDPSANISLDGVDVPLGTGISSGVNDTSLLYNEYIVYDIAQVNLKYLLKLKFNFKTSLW
Procedure: as §3

[5] = target: Human recombinant PARP2 (Homo sapiens (Human), UniProt Q9UGN5); assay: RBC HotSpot PARP2 radioisotope-based filter binding assay; details: read-out: PARP2 IC50; 2.5 nM PARP2, histone H3, 10 μM 32P-NAD+
Chain of Human recombinant PARP2 (Q9UGN5 whole entry): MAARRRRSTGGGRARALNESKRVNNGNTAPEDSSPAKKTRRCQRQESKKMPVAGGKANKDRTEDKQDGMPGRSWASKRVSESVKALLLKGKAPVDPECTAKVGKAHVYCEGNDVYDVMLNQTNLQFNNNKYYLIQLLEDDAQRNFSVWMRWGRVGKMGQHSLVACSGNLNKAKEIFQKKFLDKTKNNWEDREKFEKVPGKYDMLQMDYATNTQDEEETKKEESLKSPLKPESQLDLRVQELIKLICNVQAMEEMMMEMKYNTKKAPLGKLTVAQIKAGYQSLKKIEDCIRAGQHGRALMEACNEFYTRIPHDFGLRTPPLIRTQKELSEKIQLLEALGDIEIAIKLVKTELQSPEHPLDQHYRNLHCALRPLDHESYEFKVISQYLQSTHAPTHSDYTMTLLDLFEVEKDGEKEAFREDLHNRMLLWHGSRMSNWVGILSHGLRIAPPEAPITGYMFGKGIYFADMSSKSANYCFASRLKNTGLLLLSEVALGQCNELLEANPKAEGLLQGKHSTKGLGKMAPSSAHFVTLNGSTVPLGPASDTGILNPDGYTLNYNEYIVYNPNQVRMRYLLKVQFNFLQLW
Procedure: as §3

SMILES	IC50 [1]	IC50 [2]	IC50 [3]	IC50 [4]	IC50 [5]
CC1(C)C(=O)N(c2ccc([N+](=O)[O-])c(C(F)(F)F)c2)C(=O)N1CCNC(=O)c1cc(Cc2n[nH]c(=O)c3ccccc23)ccc1F [Compound 1.7, N-(2-(5,5-dimethyl-3-(4-nitro-3-(trifluoromethyl)phenyl)-2,4-dioxoimidazolidin-1-yl)ethyl)-2-fluoro-5-((4-oxo-3,4-dihydrophthalazin-1-yl)methyl)benzamide]	3000 nM	10000 nM	4620 nM	7 nM	1 nM
CC1(C)C(=O)N(c2ccc(C#N)c(C(F)(F)F)c2)C(=O)N1CCNC(=O)c1cc(Cc2n[nH]c(=O)c3ccccc23)ccc1F [Compound 1.8, N-(2-(3-(4-cyano-3-(trifluoromethyl)phenyl)-5,5-dimethyl-2,4-dioxoimidazolidin-1-yl)ethyl)-2-fluoro-5-((4-oxo-3,4-dihydrophthalazin-1-yl)methyl)benzamide]	5000 nM	17000 nM	503 nM	10 nM	1 nM
C[C@](O)(CS(=O)(=O)C1CCN(C(=O)c2cc(Cc3n[nH]c(=O)c4ccccc34)ccc2F)CC1)C(=O)Nc1ccc(C#N)c(C(F)(F)F)c1 [Compound 1.4, (R)—N-(4-cyano-3-(trifluoromethyl)phenyl)-3-(1-(2-fluoro-5-((4-oxo-3,4-dihydrophthalazin-1-yl)methyl)benzoyl)piperidin-4-ylsulfonyl)-2-hydroxy-2-methylpropanamide]	21000 nM	> 30000 nM	1030 nM	0.6 nM	0.2 nM
C[C@](O)(COC1CCN(C(=O)c2cc(Cc3n[nH]c(=O)c4ccccc34)ccc2F)CC1)C(=O)Nc1ccc(C#N)c(C(F)(F)F)c1 [Compound 1.5, (S)—N-(4-cyano-3-(trifluoromethyl)phenyl)-3-(1-(2-fluoro-5-((4-oxo-3,4-dihydrophthalazin-1-yl)methyl)benzoyl)piperidin-4-yloxy)-2-hydroxy-2-methylpropanamide]	14000 nM	20000 nM	6670 nM	2 nM	0.4 nM
CC1(C)C(=O)N(c2ccc(C#N)c(C(F)(F)F)c2)C(=S)N1CCNC(=O)c1cc(Cc2n[nH]c(=O)c3ccccc23)ccc1F [Compound 1.6, N-(2-(3-(4-cyano-3-(trifluoromethyl)phenyl)-5,5-dimethyl-4-oxo-2-thioxoimidazolidin-1-yl)ethyl)-2-fluoro-5-((4-oxo-3,4-dihydrophthalazin-1-yl)methyl)benzamide]	6000 nM	10000 nM	94 nM	5 nM	0.6 nM

From patent US11826430B2, “Anti-cancer nuclear hormone receptor-targeting compounds” (Nuvation Bio Inc., priority 2019, dated 2023)
